Consider eight compounds from US20230029385A1, “2-METHYL-AZA-QUINAZOLINES” (Bayer Aktiengesellschaft, priority 2019, published 2023).

Assay [1] concerns the target T1, hK-RasG12C activation by hSOS1 at high GTP concentration (Homo sapiens, UniProt Q07889).
T1 construct: His10-hSOS1; made in house; host or cells: E. coli BL21 (DE3)
T1 sequence (Q07889 with tags, fused parts or gaps): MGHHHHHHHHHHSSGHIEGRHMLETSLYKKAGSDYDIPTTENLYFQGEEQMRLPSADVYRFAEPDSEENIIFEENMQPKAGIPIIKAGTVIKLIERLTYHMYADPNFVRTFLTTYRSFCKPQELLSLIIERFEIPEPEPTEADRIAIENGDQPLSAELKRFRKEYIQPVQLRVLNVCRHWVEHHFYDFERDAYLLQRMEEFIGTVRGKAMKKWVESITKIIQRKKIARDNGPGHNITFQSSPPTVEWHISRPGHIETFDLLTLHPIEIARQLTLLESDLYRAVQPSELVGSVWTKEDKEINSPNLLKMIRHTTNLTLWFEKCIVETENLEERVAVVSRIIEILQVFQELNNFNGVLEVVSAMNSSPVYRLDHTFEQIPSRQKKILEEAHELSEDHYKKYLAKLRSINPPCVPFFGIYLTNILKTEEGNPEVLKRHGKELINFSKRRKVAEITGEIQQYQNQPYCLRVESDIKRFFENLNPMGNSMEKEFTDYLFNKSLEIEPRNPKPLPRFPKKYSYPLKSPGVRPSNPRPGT
Kind of assay: hK-RasG12C activation assay by hSOS1 at high GTP concentration (Biochemical Assay 2, HTRF). The following applies: mean; assay 2, high concentration of 50 μM GTP; read-out: K-Ras activation by SOS high GTP (off-HTRF) IC50 - [mol/l] (mean). The source says: Biochemical Assay 2: hK-RasG12C Activation Assay by hSOS1 at High GTP Concentration
This assay quantifies human SOS1-mediated nucleotide exchange of human K-Ras^G12C (hK-RasG12C) preloaded with a fluorescent […] and in presence of an excess of free GTP. Loaded hK-RasG12C generates a high HTRF-signal by energy transfer from antiGST-Terbium (FRET donor) bound to hK-Ras to the loaded fluorescent GDP analog (FRET-acceptor). hSOS1 activity exchanges the fluorescent GDP for non-fluorescent GTP and therefore leads to a reduction of the HTRF signal.
The fluorescent GDP-analog EDA-GDP-Dy647P1 (2′/3′-O-(2-Aminoethyl-carbamoyl)-guanosine-5′-diphosphate labelled with Dy647P1 (Dyomics GmbH, Germany)) is synthesized by Jena Biosciences GmbH (Germany) and supplied as a 1 mM aqueous solution.
The expression and purification of N-terminal GST-tagged human K-RasG12C and N-terminal His-tagged human SOS1 is described below. Concentrations of protein batches used are optimized to be within the linear range of the HTRF signal.
Preparation of GST-tagged hK-RasG12C loaded with fluorescent nucleotide is performed as follows: incubation of 11.5 μM hK-Ras^G12C with 5-fold excess GDP-Dy647 nucleotide (54 μM) in 500 μl NLS-buffer (RAS activation Kit Jena Bioscience, Kat. #PR-950) for 10 min at 37° C. Addition of 20 μl 1 M MgCl2 (Sigma) to final 40 mM and store on ice. Purification into buffer (10 mM HEPES pH 7.4 (Applichem), 150 mM NaCl (Sigma), 5 mM MgCl2 (Sigma)) by use of a PD-Minitrap desalting column (GE Healthcare). Concentration of 1 ml purified hK-Ras-GDP-Dy647 is approx. 4-5 μM.
(§1) The assay buffer containes 10 mM HEPES pH 7.4 (Applichem), 150 mM NaCl (Sigma), 5 mM MgCl2 (Sigma), 1 mM DTT (Thermofisher), 0.05% BSA Fraction V, pH 7.0, (ICN Biomedicals), 0.0025% (v/v) Igepal (Sigma).
A Ras working solution is prepared in assay buffer containing typically 80 nM loaded GST-hK-RasG12C-EDA-GDP-Dy647P1 and 2 nM antiGST-Tb (Cisbio, France). A hSOS1 working solution is prepared in assay buffer containing typically 8 nM His-hSOS1 and 100 μM GTP (Jena Bioscience, Germany). An inhibitor control solution is prepared in assay buffer containing the same concentration of hSOS1 without GTP.
Alternatively, the inhibitor control solution is prepared by supplementing the hSOS1 working solution with 20 μM of 6,7-dimethoxy-N-[(1R)-1-(1-naphthyl)ethyl]quinazolin-4-amine which is used to calibrate the assay.
(§2) Fifty nl of a 100-fold concentrated solution of the test compound in DMSO are transferred into a black microtiter test plate (384 or 1536, Greiner Bio-One, Germany). For this, either a Hummingbird liquid handler (Digilab, Mass., USA) or an Echo acoustic system (Labcyte, Calif., USA) is used.
All steps of the assay are performed at 20° C. A volume of 2.5 μl of the Ras working solution is added to all wells of the test plate using a Multidrop dispenser (Thermo Labsystems). After 2 min preincubation, 2.5 μl of the hSOS1 working solution are added to all wells except for those wells at the side of the test plate that are subsequently filled with 2.5 μl of the inhibitor control solution. After 20 min incubation the fluorescence is measured with a Pherastar (BMG, Germany) using the HTRF module (excitation 337 nm, emission 1: 620 nm, emission 2: 665 nm).
(§3) The ratiometric data (emission 2 divided by emission 1) are normalized using the controls (DMSO=0% inhibition, inhibition control wells with inhibitor control solution=100% inhibition). Compounds are tested in duplicates at up to 11 concentrations (for example 20 μM, 5.7 μM, 1.6 μM, 0.47 μM, 0.13 μM, 38 nM, 11 nM, 3.1 nM, 0.89 nM, 0.25 nM and 0.073 nM). IC50 values are calculated by 4-Parameter fitting using a commercial software package (Genedata Screener, Switzerland).

Assay [2] deals with T2, human SOS1 (hSOS1) with human K-RasG12C (hK-RasG12C) (Homo sapiens, UniProt Q07889).
T2 construct: His10-hSOS1; made in house; host or cells: E. coli BL21 (DE3)
T2 sequence (Q07889 with tags, fused parts or gaps): T1 sequence (Q07889 with tags, fused parts or gaps)
Nature of the assay: hK-RasG12C interaction assay with hSOS1 (Biochemical Assay 1, HTRF). It is filed as binding. The following applies: mean, read-out: K-RasG12C- SOS interaction assay IC50 - [mol/l] (mean). How it is done: Biochemical Assay 1: hK-RasG12C Interaction Assay with hSOS1
This assay quantifies the equilibrium interaction of human SOS1 (hSOS1) with human K-Ras^G12C (hK-RasG12C). Detection of the interaction is achieved by measuring homogenous time-resolved fluorescence resonance energy transfer (HTRF) from antiGST-Europium (FRET donor) bound to GST-K-RasG12C to anti-6His-XL665 bound to His-tagged hSOS1 (FRET-acceptor).
The assay buffer containes 5 mM HEPES pH 7.4 (Applichem), 150 mM NaCl (Sigma), 10 mM EDTA (Promega), 1 mM DTT (Thermofisher), 0.05% BSA Fraction V, pH 7.0, (ICN Biomedicals), 0.0025% (v/v) Igepal (Sigma) and 100 mM KF (FLUKA).
The expression and purification of N-terminal GST-tagged hK-RasG12C and N-terminal His-tagged hSOS1 is described below. Concentrations of protein batches used are optimized to be within the linear range of the HTRF signal. A Ras working solution is prepared in assay buffer containing typically 10 nM GST-hK-RasG12C and 2 nM antiGST-Eu(K) (Cisbio, France). A SOS1 working solution is prepared in assay buffer containing typically 20 nM His-hSOS1 and 10 nM anti-6His-XL665 (Cisbio, France). An inhibitor control solution is prepared in assay buffer containing 10 nM anti-6His-XL665 without hSOS1.
as §2
All steps of the assay are performed at 20° C. A volume of 2.5 μl of the Ras working solution is added to all wells of the test plate using a Multidrop dispenser (Thermo Labsystems). After 2 min preincubation, 2.5 μl of the SOS1 working solution are added to all wells except for those wells at the side of the test plate that are subsequently filled with 2.5 μl of the inhibitor control solution. After 60 min incubation the fluorescence is measured with a Pherastar (BMG, Germany) using the HTRF module (excitation 337 nm, emission 1: 620nm, emission 2: 665 nm).
as §3

The target in assay [3] is T3, K-Ras-wt activation by SOS (Homo sapiens, UniProt Q07889).
T3 sequence (Q07889 564-1049): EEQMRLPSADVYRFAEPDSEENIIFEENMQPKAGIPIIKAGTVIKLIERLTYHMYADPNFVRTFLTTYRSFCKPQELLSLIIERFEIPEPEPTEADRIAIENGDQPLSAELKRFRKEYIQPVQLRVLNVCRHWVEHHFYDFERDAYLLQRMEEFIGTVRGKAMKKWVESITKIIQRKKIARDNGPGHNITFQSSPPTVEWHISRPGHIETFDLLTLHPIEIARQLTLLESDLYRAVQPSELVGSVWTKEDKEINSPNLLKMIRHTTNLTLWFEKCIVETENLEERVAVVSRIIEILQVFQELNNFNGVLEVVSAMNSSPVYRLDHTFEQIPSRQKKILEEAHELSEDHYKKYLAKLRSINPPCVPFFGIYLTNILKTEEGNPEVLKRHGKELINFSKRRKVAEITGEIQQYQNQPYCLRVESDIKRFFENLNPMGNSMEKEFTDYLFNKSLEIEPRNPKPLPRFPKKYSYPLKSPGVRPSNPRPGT
Kind of assay: K-Ras-wt activation by SOS. The format is biochemical. Conditions: mean; K-Ras wild type; read-out: K-Ras-wt activation by SOS IC50 - [mol/l] (mean).

The target in assay [4] is T4, hK-RasG12C activation by hSOS1 (Homo sapiens, UniProt Q07889).
T4 construct: His10-hSOS1; made in house; host or cells: E. coli BL21 (DE3)
T4 sequence (Q07889 with tags, fused parts or gaps): T1 sequence (Q07889 with tags, fused parts or gaps)
Nature of the assay: hK-RasG12C activation assay by hSOS1 (Biochemical Assay 3, HTRF). Conditions: mean; assay 3, loading with fluorescent GTP-analog; read-out: K-RasG12C activation by SOS IC50 - [mol/l] (mean).
From the text: Biochemical Assay 3: hK-RasG12C Activation Assay by hSOS1
K-Ras is a small GTPase that can bind GDP and GTP. The guanine nucleotide exchange factor SOS1 catalyzes the activation of K-Ras by promoting the exchange of GDP to GTP. SOS1 binds to K-Ras-GDP thereby opening the GDP-binding pocket to facilitate GDP release. Rebinding of excess nucleotide leads to dissociation of the K-Ras-SOS1 intermediate complex leaving K-Ras loaded with the nucleotide.
This assay quantifies human SOS1- (hSOS1-) mediated loading of human K-Ras^G12C-GDP (hK-RasG12C-GDP) with a fluorescent GTP-analog. Detection of successful loading is achieved by measuring homogenous time-resolved fluorescence resonance energy transfer (HTRF) from antiGST-Terbium (FRET donor) bound to GST-hK-RasG12C (see below) to the loaded fluorescent GTP analog (FRET-acceptor).
The fluorescent GTP-analog EDA-GTP-Dy647P1 (2′/3′-O-(2-Aminoethyl-carbamoyl)-guanosine-5′-triphosphate labelled with Dy647P1 (Dyomics GmbH, Germany)) is synthesized by Jena Biosciences GmbH (Germany) and supplied as a 1mM aqueous solution.
as §1
The expression and purification of N-terminal GST-tagged human K-RasG12C and N-terminal His-tagged hSOS1 is described below. Concentrations of protein batches used are optimized to be within the linear range of the HTRF signal. A hRas working solution is prepared in assay buffer containing typically 100 nM GST-hK-RasG12C and 2 nM antiGST-Tb (Cisbio, France). A hSOS1 working solution is prepared in assay buffer containing typically 20nM hSOS1 and 200 nM EDA-GTP-Dy647P1. An inhibitor control solution is prepared in assay buffer containing 200 nM EDA-GTP-Dy647P1 without hSOS1.
as §2
All steps of the assay are performed at 20° C. A volume of 2.5 μl of the hRas working solution is added to all wells of the test plate using a Multidrop dispenser (Thermo Labsystems). After 10 min preincubation, 2.5 μl of the hSOS1 working solution are added to all wells except for those wells at the side of the test plate that are subsequently filled with 2.5 μl of the inhibitor control solution. After 30 min incubation the fluorescence is measured with a Pherastar (BMG, Germany) using the HTRF module (excitation 337 nm, emission 1: 620 nm, emission 2: 665 nm).
as §3

For assay [5] the following is noted: combination of BAY-293 with ARS-853; cited from earlier work.

Each structure is given as a SMILES string.

As to `CCOc1cc2c(N[C@H](C)c3cccc(C(F)F)c3F)nc(C)nc2cn1`, the IC50 was 0.851 µM in assay [1], 0.134 µM in assay [2], 0.308 µM in assay [3] and 0.357 µM in assay [4].
`CNCc1ccccc1-c1csc(C(C)Nc2nc(C)nc3cc(OC)c(OC)cc23)c1` (stereo not shown) [BAY-293]: in assay [5], the “anti-proliferative activity in vitro of the combination” value is reported as “Synergistic anti-proliferative activity”.
On to `Cc1nc(N[C@H](C)c2cccc(C(F)F)c2F)c2cc(F)ncc2n1`, for which the IC50 in assay [1], in assay [2], in assay [3] and in assay [4] was more than 20 µM throughout.
As for `CC(=O)N[C@H]1CCN(c2cc3c(N[C@H](C)c4cccc(C(F)F)c4F)nc(C)nc3cn2)C1`, the IC50 was 0.197 µM in assay [1], 0.0798 µM in assay [2], 0.101 µM in assay [3] and 0.144 µM in assay [4].
`CC(=O)N[C@@H]1CCN(c2cc3c(N[C@H](C)c4cccc(C(F)F)c4F)nc(C)nc3c(C)n2)C1`: the IC50 was 0.255 µM in assay [1], 0.0568 µM in assay [2], 0.0832 µM in assay [3] and 0.209 µM in assay [4].
On the same counts, the results for `Cc1nc(N[C@H](C)c2cccc(C(F)F)c2F)c2cc(N3CCCC3)ncc2n1` are 0.32 µM, 0.185 µM, 0.172 µM and 0.251 µM.
The corresponding values for `CC(=O)N[C@@H]1CCN(c2cc3c(N[C@H](C)c4cccc(C(F)F)c4F)nc(C)nc3cn2)C1` are 0.187 µM, 0.0773 µM, 0.0923 µM and 0.11 µM.
For the compound `Cc1nc(N[C@H](C)c2cccc(C(F)F)c2F)c2cc(F)nc(C)c2n1`, the IC50 in assay [2], in assay [3] and in assay [4] was more than 20 µM throughout.
